Measurements: paper PMC6777076 (ACS Omega, 2019)

Target: T1, uridine nucleoside ribohydrolase (UNH) (Trichomonas vaginalis, UniProt A2FTT0)
T1 sequence (A2FTT0 1-347): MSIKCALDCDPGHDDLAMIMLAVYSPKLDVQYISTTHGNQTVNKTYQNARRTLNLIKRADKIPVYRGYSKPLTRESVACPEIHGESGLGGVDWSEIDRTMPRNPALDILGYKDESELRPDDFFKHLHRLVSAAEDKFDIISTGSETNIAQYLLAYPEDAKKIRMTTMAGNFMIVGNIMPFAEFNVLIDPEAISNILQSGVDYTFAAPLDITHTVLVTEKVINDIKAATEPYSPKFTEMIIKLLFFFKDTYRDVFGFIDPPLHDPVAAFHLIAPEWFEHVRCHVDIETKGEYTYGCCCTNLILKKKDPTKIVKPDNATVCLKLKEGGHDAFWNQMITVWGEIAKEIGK
Test: 19F NMR-based activity assay
Type: biochemical
Conditions: from UNH potency and heavy atom count

| LE (ligand efficiency) | SMILES |
| --- | --- |
| 0.53 | CSc1nc2ccccc2[nH]1 [2-methylthiobenzimidazole] |
| 0.36 | COc1ccc2[nH]c([S+]([O-])Cc3ncc(C)c(OC)c3C)nc2c1 (centres unmarked) [omeprazole] |
